Patent US6379720B1, “Compositions containing hops extract and their use in water systems and process streams to control biological fouling” (Nalco Chemical Company, priority 2000, dated 2002)
Where “and” joins values, the source holds several entries; their conditions need not be identical. Identical values can stand only once.

Tested on: Scenedesmus obliquus green algae
Test: Synergism test of hops extract/biocide combinations (Kull Synergism Index), chlorophyll OD 650 nm endpoint
Format: cell-based
Excerpt: The accepted method used to determined synergism is described by Kull, F. C., Eisman, P. C., Sylwestrowicz, H. D., and Mayer, R. L. in Applied Microbiology 9:538-541 (1961), and is well known in the art.
The equation for determining synergism is as follows:
QaQA+Qb/QB=Synergism Index (SI)
Where QA and QB are the concentrations of compounds A or B that produce an endpoint when acting alone, and where Qa and Qb are the concentrations of compounds A or B acting in the A/B combination required to produce an endpoint. The endpoint is defined by the particular test method, for example, an optical density.
To determine synergism, one evaluates the Synergism Index (SI).
The efficacy of the invention was tested in the following manner:
Scenedesmus obliquus green algae cells were prepared in synthetic cooling water (pH 8.2) to a concentration of 10^7 CFU/ml. 100 ul of the algae suspension were added to 200 ul aliquots of hops extract antimicrobial compositions in synthetic cooling water contained in 96 well microplates (FALCON® 3075). A wide range of hops extract/biocide combinations were tested. Microplates were covered with the provided lid and incubated at 25° C. for six days with 16 hour/8 hour light/dark cycles (cool-white fluorescent lamps, 1255 lux). Following incubation, supernatant was removed from each microplate well by vacuum aspiration. […] 200 ul of dimethylsulfoxide (DMSO) were added to each microplate well to dissolve the algae cells and extract chlorophyll. The optical density at 650 nm of each extraction was determined using a plate reader (Beckman Biomek®).
A wide range of ratios of the two active ingredients can be used, depending on several factors including the microorganisms to be controlled. In this example, data designated as QA and Qa in each case are for hops extract and data designated as QB and Qb are for the other antimicrobial (IZN, POLYQUAT, GLUT, TBTZ, DCOI, THPS, BNEF, DBNPA, and DTEA).

[1] = with hops extract 8 ppm, Endpoint OD650 = 0.300
[2] = with hops extract 16 ppm, Endpoint OD650 = 0.300

Molecule: O=[N+]([O-])C(Br)=Cc1ccco1 [BNEF, 2-(2-bromo-2-nitroethenyl)furan]
- QB (concentration of the antimicrobial that produces the endpoint when acting alone) (Endpoint OD650 = 0.300, (32) used for synergy calculations): >16 (32) ppm
- Qb (concentration of the antimicrobial in the combination required to produce the endpoint) (with hops extract 4 ppm, Endpoint OD650 = 0.300): 16 ppm
- Qb (concentration of the antimicrobial in the combination required to produce the endpoint) [1]: 16 ppm
- Qb (concentration of the antimicrobial in the combination required to produce the endpoint) [2]: 1 ppm

Molecule: N#CC(Br)(Br)C(N)=O [DBNPA, 2,2-dibromo-3-nitrilopropionamide]
- QB (concentration of the antimicrobial that produces the endpoint when acting alone) (Endpoint OD650 = 0.200, (32) used for synergy calculations): >16 (32) ppm
- Qb (concentration of the antimicrobial in the combination required to produce the endpoint) (with hops extract 4 ppm, Endpoint OD650 = 0.200): 16 ppm
- Qb (concentration of the antimicrobial in the combination required to produce the endpoint) (with hops extract 16 ppm, Endpoint OD650 = 0.200): 16 ppm

Molecule: CCCCCCCCn1sc(Cl)c(Cl)c1=O [DCOI, 4,5-dichloro-2-n-octyl-4-isothiazolin-3-one]
- QB (concentration of the antimicrobial that produces the endpoint when acting alone) (Endpoint OD650 = 0.150, (32) used for synergy calculations): >16 (32) ppm
- Qb (concentration of the antimicrobial in the combination required to produce the endpoint) (with hops extract 4 ppm, Endpoint OD650 = 0.150): 16 ppm
- Qb (concentration of the antimicrobial in the combination required to produce the endpoint) (with hops extract 64 ppm, Endpoint OD650 = 0.150): 8 ppm and 16 ppm

Molecule: CCCCCCCCCCSCCN [DTEA, 2-(decylthio)ethanamine]
- QB (concentration of the antimicrobial that produces the endpoint when acting alone) (Endpoint OD650 = 0.300): 16 ppm
- Qb (concentration of the antimicrobial in the combination required to produce the endpoint) [1]: 4 ppm and 8 ppm
- Qb (concentration of the antimicrobial in the combination required to produce the endpoint) [2]: 1 ppm and 2 ppm

Molecule: O=CCCCC=O [GLUT, glutaraldehyde]
- QB (concentration of the antimicrobial that produces the endpoint when acting alone) (Endpoint OD650 = 0.250, (32) used for synergy calculations): >16 (32) ppm
- Qb (concentration of the antimicrobial in the combination required to produce the endpoint) (with hops extract 16 ppm, Endpoint OD650 = 0.250): 4 ppm

Molecule: CCNc1nc(Cl)nc(NC(C)(C)C)n1 [TBTZ, 2-(tert-butylamino)-4-chloro-6(ethylamino)-s-triazine]
- QB (concentration of the antimicrobial that produces the endpoint when acting alone) (Endpoint OD650 = 0.250): 16 ppm

Molecule: methylchloro/isothiazolone [IZN]
- QB (concentration of the antimicrobial that produces the endpoint when acting alone) (Endpoint OD650 = 0.100, (32) used for synergy calculations): >16 (32) ppm
- Qb (concentration of the antimicrobial in the combination required to produce the endpoint) (with hops extract 16 ppm, Endpoint OD650 = 0.100): 16 ppm
- Qb (concentration of the antimicrobial in the combination required to produce the endpoint) (with hops extract 32 ppm, Endpoint OD650 = 0.100): 16 ppm
- Qb (concentration of the antimicrobial in the combination required to produce the endpoint) (with hops extract 64 ppm, Endpoint OD650 = 0.100): 8 ppm and 16 ppm
- Qb (concentration of the antimicrobial in the combination required to produce the endpoint) (with hops extract 128 ppm, Endpoint OD650 = 0.100): 8 ppm and 16 ppm
- Qb (concentration of the antimicrobial in the combination required to produce the endpoint) (with hops extract 256 ppm, Endpoint OD650 = 0.100): 8 ppm

Molecule: tetrakishydroxymethyl phosphonium sulfate [THPS]
- QB (concentration of the antimicrobial that produces the endpoint when acting alone) (Endpoint OD650 = 0.250): 16 ppm
- Qb (concentration of the antimicrobial in the combination required to produce the endpoint) (with hops extract 4 ppm, Endpoint OD650 = 0.250): 4 ppm
- Qb (concentration of the antimicrobial in the combination required to produce the endpoint) (with hops extract 8 ppm, Endpoint OD650 = 0.250): 4 ppm and 8 ppm
